Assays:
[1] = target: Polyamine deacetylase HDAC10 (Homo sapiens, UniProt Q969S8); test: Inhibition of recombinant human N-terminal GST-tagged HDAC-10 (1 to 482 residues) expressed in baculovirus infected in Sf9 cells using Boc-Lys (q-Ac)-AMC as substrate incubated for 10 mins followed by substrate addition and measured after 30 mins by fluorescence based assay
Bcap37 = test: Cytotoxicity against human Bcap37 cells assessed as reduction in cell viability incubated for 48 hrs by MTT assay; type: functional, cell-based; settings: Bcap37, 48 h
Histone deacetylase 2 = Histone deacetylase 2 (Homo sapiens, UniProt Q92769); test: Inhibition of recombinant human C-terminal GST-tagged full length HDAC-2 expressed in baculovirus infected in Sf9 cells using Boc-Lys (q-Ac)-AMC as substrate incubated for 10 mins followed by substrate addition and measured after 30 mins by fluorescence based assay
L02 = test: Cytotoxicity against human L02 cells assessed as reduction in cell viability incubated for 48 hrs by MTT assay; type: ADME, cell-based; settings: L02, 48 h
MDA-MB-231 [2] = test: Induction of apoptosis in human MDA-MB-231 cells assessed as early apoptotic cells at 2.5 uM incubated for 72 hrs by annexinV-FITC and PI staining based flow cytometry analysis (reference value: 5.57 %); type: functional
NCI-H460 = test: Cytotoxicity against human NCI-H460 cells assessed as reduction in cell viability incubated for 48 hrs by MTT assay; type: functional, cell-based; settings: NCI-H460, 48 h
MDA-MB-231 [3] = test: Induction of apoptosis in human MDA-MB-231 cells assessed as increase in caspase-3 cleavage incubated for 48 hrs by Western blot analysis; type: functional, cell-based; settings: dose 0.5-10 µM
MDA-MB-231 [4] = test: Induction of cell cycle arrest in human MDA-MB-231 cells assessed as S phase accumulation at 1 uM incubated for 24 hrs by PI staining based flow cytometry analysis (reference value: 43.82 %); type: functional
[5] = Oral bioavailability in Sprague-Dawley rat at 20 mg/kg measured upto 12 hrs by LC-MS/MS analysis; type: ADME, organism-based; settings: in vivo
Histone deacetylase 9 = Histone deacetylase 9 (Homo sapiens, UniProt Q9UKV0); test: Inhibition of recombinant human N-terminal GST-tagged HDAC-9 (548 to end residues) expressed in baculovirus infected in Sf9 cells using Boc-Lys (q-Ac)-AMC as substrate incubated for 10 mins followed by substrate addition and measured after 30 mins by fluorescence based assay
Histone deacetylase 9, sequence (Q9UKV0 whole entry): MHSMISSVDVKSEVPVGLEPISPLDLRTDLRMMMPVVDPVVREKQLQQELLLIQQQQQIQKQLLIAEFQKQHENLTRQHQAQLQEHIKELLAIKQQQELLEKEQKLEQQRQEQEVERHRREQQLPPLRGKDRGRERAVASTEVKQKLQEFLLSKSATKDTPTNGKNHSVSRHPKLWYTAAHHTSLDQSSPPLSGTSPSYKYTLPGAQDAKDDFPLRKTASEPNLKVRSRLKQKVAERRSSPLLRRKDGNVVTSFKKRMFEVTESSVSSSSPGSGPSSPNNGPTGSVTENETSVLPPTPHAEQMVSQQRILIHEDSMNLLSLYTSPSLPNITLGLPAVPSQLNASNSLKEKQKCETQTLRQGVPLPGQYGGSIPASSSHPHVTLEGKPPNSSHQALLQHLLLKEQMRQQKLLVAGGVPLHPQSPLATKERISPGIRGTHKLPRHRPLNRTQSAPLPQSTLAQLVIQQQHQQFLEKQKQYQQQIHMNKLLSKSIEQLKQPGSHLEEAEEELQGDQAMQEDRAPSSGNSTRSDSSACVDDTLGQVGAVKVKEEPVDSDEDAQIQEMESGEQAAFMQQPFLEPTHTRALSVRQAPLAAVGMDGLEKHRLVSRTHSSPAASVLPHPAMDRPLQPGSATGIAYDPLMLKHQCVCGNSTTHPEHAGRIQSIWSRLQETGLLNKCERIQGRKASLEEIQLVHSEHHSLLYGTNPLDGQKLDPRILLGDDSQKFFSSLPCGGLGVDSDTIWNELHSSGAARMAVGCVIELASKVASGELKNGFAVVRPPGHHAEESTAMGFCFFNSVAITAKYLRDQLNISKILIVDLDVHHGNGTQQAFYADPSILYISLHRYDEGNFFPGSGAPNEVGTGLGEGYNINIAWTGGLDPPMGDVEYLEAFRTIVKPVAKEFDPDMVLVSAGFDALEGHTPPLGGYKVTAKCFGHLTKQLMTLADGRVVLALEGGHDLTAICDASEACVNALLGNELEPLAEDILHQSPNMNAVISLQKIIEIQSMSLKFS

Polyamine deacetylase HDAC10, sequence (Q969S8 whole entry, the tested form may be a part): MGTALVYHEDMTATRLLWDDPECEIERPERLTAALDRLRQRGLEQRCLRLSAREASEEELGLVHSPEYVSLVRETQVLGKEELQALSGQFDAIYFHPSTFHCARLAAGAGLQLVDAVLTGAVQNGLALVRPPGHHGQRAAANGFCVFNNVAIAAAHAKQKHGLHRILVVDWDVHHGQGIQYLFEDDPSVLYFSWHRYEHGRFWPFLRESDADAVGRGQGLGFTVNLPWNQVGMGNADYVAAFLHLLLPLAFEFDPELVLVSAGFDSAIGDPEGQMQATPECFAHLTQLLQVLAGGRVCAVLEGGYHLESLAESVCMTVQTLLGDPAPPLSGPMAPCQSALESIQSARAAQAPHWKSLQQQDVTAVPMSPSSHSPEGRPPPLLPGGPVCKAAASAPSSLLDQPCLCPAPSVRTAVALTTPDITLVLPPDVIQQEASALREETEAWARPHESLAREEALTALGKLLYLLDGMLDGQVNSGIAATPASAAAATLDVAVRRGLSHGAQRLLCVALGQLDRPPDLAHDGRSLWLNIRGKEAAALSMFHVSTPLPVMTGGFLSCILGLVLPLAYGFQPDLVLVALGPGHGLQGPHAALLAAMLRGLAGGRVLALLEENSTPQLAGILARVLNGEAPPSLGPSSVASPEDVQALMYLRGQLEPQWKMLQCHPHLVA
Histone deacetylase 2, sequence (Q92769 whole entry): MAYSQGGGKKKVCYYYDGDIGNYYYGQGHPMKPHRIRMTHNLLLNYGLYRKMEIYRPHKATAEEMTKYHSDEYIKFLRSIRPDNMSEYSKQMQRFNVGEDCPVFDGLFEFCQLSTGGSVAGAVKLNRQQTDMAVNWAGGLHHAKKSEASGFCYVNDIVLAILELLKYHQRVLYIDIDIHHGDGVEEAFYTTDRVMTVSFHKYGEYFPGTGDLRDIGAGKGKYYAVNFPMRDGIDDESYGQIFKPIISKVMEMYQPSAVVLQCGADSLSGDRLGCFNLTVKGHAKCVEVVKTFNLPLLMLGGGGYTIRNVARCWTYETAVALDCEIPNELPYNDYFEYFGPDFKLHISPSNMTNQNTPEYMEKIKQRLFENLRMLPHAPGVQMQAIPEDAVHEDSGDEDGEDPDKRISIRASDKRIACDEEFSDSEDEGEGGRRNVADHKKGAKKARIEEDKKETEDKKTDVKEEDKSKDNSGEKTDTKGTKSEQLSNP

`CN(C)CCOc1ccc(-c2cc(=O)c3c(O)cc(OCCCCCC(=O)NO)cc3o2)cc1.Cl` gave an IC50 [1] of 247 nM, an IC50 (Bcap37) of 3280 nM and an IC50 (Histone deacetylase 2) of 58.5 nM. The IC50 (L02) was > 10000 nM, the Activity (MDA-MB-231 [2]) was 50.1% and the IC50 (NCI-H460) was 2720 nM. For the same compound, the Activity (MDA-MB-231 [3]) was “Dose-dependent effect”, the Activity (MDA-MB-231 [4]) was 8.09% and the bioavailability [5] was 57.8%. For the same compound, the IC50 (Histone deacetylase 9) was > 10000 nM.

Source: ChEMBL document CHEMBL4765432, “Design and synthesis of novel Flavone-based histone deacetylase inhibitors antagonizing activation of STAT3 in breast cancer” (Eur J Med Chem, 2020)
